Two molecules from patent EP4714949A1, “NOVEL COMPOUNDS CAPABLE OF INDUCING OSTEOGENIC DIFFERENTIATION” (AJOU UNIVERSITY INDUSTRY-ACADEMIC COOPERATION FOUNDATION, priority 2023, dated 2024) can be followed below.

One assay has as its target T1, MDM2 (Homo sapiens, UniProt Q00987).
T1 construct: evaluate the intracellular MDM2 protein degradation capacity; endogenous in cells; host or cells: human dental pulp stem cells (hDPSCs)
The experiment in a line: MDM2 protein degradation by Western blot (SDS-PAGE) in hDPSCs. The class given is cell-based. Particulars: FIG. 2, selection among initially selected compounds. The procedure:
Human dental pulp stem cell lines (hDPSCs) were treated with 14 types of synthesized MDM2-PROTACs (10 µM) for 1 hour and Western blot analysis using SDS-PAGE gel was performed to evaluate the intracellular MDM2 protein degradation capacity.
(A western blot detects proteins with antibodies after separation by electrophoresis.)

For another assay, the system named is p53. Kind of assay: p53 activation in hDPSCs (FIG. 2, compound and concentration selection). Format: cell-based, Human.

T1 sequence (Q00987 whole entry): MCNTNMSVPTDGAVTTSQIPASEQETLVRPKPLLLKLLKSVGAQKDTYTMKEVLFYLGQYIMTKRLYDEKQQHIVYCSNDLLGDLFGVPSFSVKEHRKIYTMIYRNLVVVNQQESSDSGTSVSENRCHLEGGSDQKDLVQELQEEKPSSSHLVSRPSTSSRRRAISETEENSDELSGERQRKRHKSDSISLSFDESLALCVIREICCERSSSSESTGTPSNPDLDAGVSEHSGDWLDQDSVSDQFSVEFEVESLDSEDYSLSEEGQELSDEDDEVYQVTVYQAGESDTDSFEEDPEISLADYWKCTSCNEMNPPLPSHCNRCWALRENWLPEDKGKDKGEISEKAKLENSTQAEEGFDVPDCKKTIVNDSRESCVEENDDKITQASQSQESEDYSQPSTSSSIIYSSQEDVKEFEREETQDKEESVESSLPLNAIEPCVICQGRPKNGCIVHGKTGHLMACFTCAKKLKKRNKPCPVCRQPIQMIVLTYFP

As to `COc1ccc(C2=NC(c3ccc(Cl)cc3)C(c3ccc(Cl)cc3)N2C(=O)N2CCN(CC(=O)NCCCCCCCCOc3cccc4c3C(=O)N(C3CCC(=O)NC3=O)C4=O)C(=O)C2)c(OC(C)C)c1` (stereo not drawn) [Compound 6b, 2-(4-(cis-4,5-bis(4-chlorophenyl)-2-(2-isopropoxy-4-methoxyphenyl)-4,5-dihydro-1H-imidazole-1-carbonyl)-2-oxopiperazin-1-yl)-N-(8-((2-(2,6-dioxoopiperidin-3-yl)-1,3-dioxoisoindolin-4-yl)oxy)octyl)acetamide], on MDM2, the MDM2 degradation result is given as “effectively degrade MDM2”. For the same molecule, the p53 activation result with p53 is “activate p53”.
Turning to `COc1ccc(C2=NC(c3ccc(Cl)cc3)C(c3ccc(Cl)cc3)N2C(=O)N2CCN(CC(=O)NCCCCCCCC#Cc3cccc4c3C(=O)N(C3CCC(=O)NC3=O)C4=O)C(=O)C2)c(OC(C)C)c1` (stereo not drawn) [Compound 16b, 2-(4-(cis-4,5-bis(4-chlorophenyl)-2-(2-isopropoxy-4-methoxyphenyl)-4,5-dihydro-1H-imidazole-1-carbonyl)-2-oxopiperazin-1-yl)-N-(9-(2-(2,6-dioxopiperidin-3-yl)-1,3-dioxoisoindolin-4-yl)non-8-yn-1-yl) acetamide], the MDM2 degradation result at MDM2 was “effectively degrade MDM2”. Moreover, the p53 activation entry in the assay on p53 is “activate p53”.
